# Measurements taken from US20220040180A1, “KITS AND METHODS FOR TREATING CANCERS” (Spectrum Pharmaceuticals, Inc., priority 2018, published 2022).
# Assays:
# Format in all cases: physicochemical
# [1] = Behaviour under long-term, accelerated and harsh storage conditions (moisture absorption, stability of form)
# [2] = Dynamic vapor sorption (DVS) hygroscopicity
# Description: Dynamic Vapor Sorption (DVS) analysis was conducted on the DVS advantage (Surface measurement system, United Kingdom) analyzer at 25° C. and relative humidity of 0-90%.
# 10 mg of sample was placed in the wire mesh steam sorption balance pan and attached to the DVS-advantage dynamic vapor adsorption balance by the Surface Measurement Systems. […] After the completion of the sorption cycle, the sample was dried using the same procedure, during which the relative humidity was returned to a relative humidity […] all the time. The change in weight during the sorption/desorption cycle (repetition of 3 times) was recorded to determine the hygroscopicity of the sample.
# [3] = Solubility in water of the compound of chemical formula (1); settings: amorphous free base
# [4] = Test Example 2: comparative storage stability of hydrochloride salt forms, purity by HPLC
# Description: High performance liquid chromatography (HPLC) was conducted on the Agilent 1100/1200 series HPLC Systems (Agilent, USA) analyzer for the purpose of purity and content analysis including stability test and the like. The analysis conditions of the HPLC are as follows.
# To compare the stability of amorphous hydrochloride salt form and crystalline hydrochloride salt polymorphs, each of samples of the polymorphs and amorphous form of the hydrochloride salt of the compound of chemical formula (1) prepared in Examples 4 to 6 was left for 4 weeks under long term conditions (e.g., temperature of 25±2° C. and relative humidity of 60±5%) and accelerated conditions (e.g., temperature of 40° C. and relative humidity of 75%). Each sample was analyzed by high performance liquid chromatography (HPLC) according to the purity measurement conditions of the compound of chemical formula (1).
# [5] = Test Example 1: comparative solubility of amorphous and crystalline hydrochloride salt forms (HPLC); settings: 25° C., loading of 1.0 mg/mL; for Solubility, Water: LOD 0.1 μg/mL
# Description: To compare the solubility of amorphous hydrochloride salt form and crystalline hydrochloride salt polymorphs, each of the polymorphs and amorphous form of the hydrochloride salt of the compound of chemical formula (1) prepared in Examples 4 to 6 was used to prepare samples under the following conditions according to non-ionized water and acidity (pH). Thereafter, each solution was analyzed by high performance liquid chromatography (HPLC) according to the measurement conditions of the content of the compound of chemical formula (1) to measure the dissolved amount (LOD: 0.1 μg/mL) based on the compound of chemical formula (1).
# Specifically, 5 mg of each polymorph was added to 5 ml of water and mixed using a Voltamixer at 20-25° C. Thereafter, the filtrate obtained by filtrating using GH Polypro membrane Acrodisc, PALL (pore size 0.2 μm) was diluted with a dilution solvent for high performance liquid chromatography (HPLC) at a ratio of 1/100, to obtain the samples.
# [6] = relative humidity range of 10-90%, 25° C.
# [7] = 25 ± 2° C., 60 ± 5% RH, listed as HCl cryst. anhydrate
# [8] = 40 ± 2° C., 75 ± 5% RH, listed as HCl cryst. anhydrate
# [9] = 25 ± 2° C., 60 ± 5% RH, listed as HCl cryst. hydrate
# [10] = 40 ± 2° C., 75 ± 5% RH, listed as HCl cryst. hydrate
smiles,measurement,setting,value
"C=CC(=O)N1CCC(Oc2cc3c(Nc4ccc(Cl)c(Cl)c4F)ncnc3cc2OC)CC1 [Example 3, 1-(4-(4-(3,4-dichloro-2-fluorophenylamino)-7-methoxyquinazolin-6-yloxy)piperidin-1-yl)prop-2-en-1-one]",stability of the crystalline form on storage,"[1]; long-term (25° C., 60% RH), accelerated (40° C., 75% RH) and harsh (60° C.) conditions",sufficiently stable
same,hygroscopic degree (DVS),"[2]; relative humidity range of 0-90%, listed as crystalline anhydrous Form II",very low
same,hygroscopic degree (DVS),[2]; [6],about 0.7%
"C=CC(=O)N1CCC(Oc2cc3c(Nc4ccc(Cl)c(Cl)c4F)ncnc3cc2OC)CC1 [Reference Example, 1-(4-(4-(3,4-dichloro-2-fluorophenylamino)-7-methoxyquinazolin-6-yloxy)piperidin-1-yl)prop-2-en-1-one]",hygroscopic degree (DVS),[2]; [6],1-3%
same,solubility,[3],< 1 µg/mL
"C=CC(=O)N1CCC(Oc2cc3c(Nc4ccc(Cl)c(Cl)c4F)ncnc3cc2OC)CC1 [Example 5, 1-(4-(4-(3,4-dichloro-2-fluorophenylamino)-7-methoxyquinazolin-6-yloxy)piperidin-1-yl)prop-2-en-1-one]","Purity (HPLC, %) 3 days",[4]; [7],99.4%
same,"Purity (HPLC, %) Start",[4]; [7],99.4%
same,"Purity (HPLC, %) Week 1",[4]; [7],99.4%
same,"Purity (HPLC, %) Week 2",[4]; [7],99.5%
same,"Purity (HPLC, %) Week 4",[4]; [7],99.5%
same,"Purity (HPLC, %) 3 days",[4]; [8],99.4%
same,"Purity (HPLC, %) Start",[4]; [8],99.4%
same,"Purity (HPLC, %) Week 1",[4]; [8],99.4%
same,"Purity (HPLC, %) Week 2",[4]; [8],99.5%
same,"Purity (HPLC, %) Week 4",[4]; [8],99.5%
same,moisture absorption on storage,"[1]; 25° C., 60% relative humidity and 40° C., 75% relative humidity",did not absorb moisture
same,hygroscopic degree (DVS),[2]; [6],about 0.35%
same,hygroscopic degree (DVS),"[2]; relative humidity range of 10-90%, 25° C., listed as crystalline anhydrous monohydrochloride (1HCl) form",very low
same,"Solubility, pH 1.2",[5]; listed as HCl cryst. anhydrate,92 μg/mL
same,"Solubility, pH 2.0",[5]; listed as HCl cryst. anhydrate,140 μg/mL
same,"Solubility, pH 4.0",[5]; listed as HCl cryst. anhydrate,74 μg/mL
same,"Solubility, Water",[5]; listed as HCl cryst. anhydrate,20 µg/mL
"C=CC(=O)N1CCC(Oc2cc3c(Nc4ccc(Cl)c(Cl)c4F)ncnc3cc2OC)CC1 [Example 6, 1-(4-(4-(3,4-dichloro-2-fluorophenylamino)-7-methoxyquinazolin-6-yloxy)piperidin-1-yl)prop-2-en-1-one]","Solubility, pH 1.2",[5]; listed as HCl amorphous,274 μg/mL
same,"Solubility, pH 2.0",[5]; listed as HCl amorphous,213 μg/mL
same,"Solubility, pH 4.0",[5]; listed as HCl amorphous,34 μg/mL
same,"Solubility, Water",[5]; listed as HCl amorphous,53 µg/mL
"C=CC(=O)N1CCC(Oc2cc3c(Nc4ccc(Cl)c(Cl)c4F)ncnc3cc2OC)CC1 [Example 4, 1-(4-(4-(3,4-dichloro-2-fluorophenylamino)-7-methoxyquinazolin-6-yloxy)piperidin-1-yl)prop-2-en-1-one]","Purity (HPLC, %) 3 days",[4]; [9],99.2%
same,"Purity (HPLC, %) Start",[4]; [9],99.2%
same,"Purity (HPLC, %) Week 1",[4]; [9],99.2%
same,"Purity (HPLC, %) Week 2",[4]; [9],99.1%
same,"Purity (HPLC, %) Week 4",[4]; [9],99.2%
same,"Purity (HPLC, %) 3 days",[4]; [10],99.3%
same,"Purity (HPLC, %) Start",[4]; [10],99.2%
same,"Purity (HPLC, %) Week 1",[4]; [10],99.2%
same,"Purity (HPLC, %) Week 2",[4]; [10],99.1%
same,"Purity (HPLC, %) Week 4",[4]; [10],99.2%
same,hygroscopic degree (DVS),[2]; [6],about 0.4%
same,hygroscopic degree (DVS),"[2]; relative humidity range of 10-90%, 25° C., listed as crystalline monohydrochloride monohydrate (1HCl.1H2O) form",very low
same,"Solubility, pH 1.2",[5]; listed as HCl cryst. hydrate,5 μg/mL
same,"Solubility, pH 2.0",[5]; listed as HCl cryst. hydrate,7 μg/mL
same,"Solubility, pH 4.0",[5]; listed as HCl cryst. hydrate,48 μg/mL
same,"Solubility, Water",[5]; listed as HCl cryst. hydrate,<LOD
